pIC50: −log10 of the molar value.

The target in the first data set is T1, TLR9 (Homo sapiens, UniProt Q9NR96).
T1 sequence (Q9NR96 26-1032): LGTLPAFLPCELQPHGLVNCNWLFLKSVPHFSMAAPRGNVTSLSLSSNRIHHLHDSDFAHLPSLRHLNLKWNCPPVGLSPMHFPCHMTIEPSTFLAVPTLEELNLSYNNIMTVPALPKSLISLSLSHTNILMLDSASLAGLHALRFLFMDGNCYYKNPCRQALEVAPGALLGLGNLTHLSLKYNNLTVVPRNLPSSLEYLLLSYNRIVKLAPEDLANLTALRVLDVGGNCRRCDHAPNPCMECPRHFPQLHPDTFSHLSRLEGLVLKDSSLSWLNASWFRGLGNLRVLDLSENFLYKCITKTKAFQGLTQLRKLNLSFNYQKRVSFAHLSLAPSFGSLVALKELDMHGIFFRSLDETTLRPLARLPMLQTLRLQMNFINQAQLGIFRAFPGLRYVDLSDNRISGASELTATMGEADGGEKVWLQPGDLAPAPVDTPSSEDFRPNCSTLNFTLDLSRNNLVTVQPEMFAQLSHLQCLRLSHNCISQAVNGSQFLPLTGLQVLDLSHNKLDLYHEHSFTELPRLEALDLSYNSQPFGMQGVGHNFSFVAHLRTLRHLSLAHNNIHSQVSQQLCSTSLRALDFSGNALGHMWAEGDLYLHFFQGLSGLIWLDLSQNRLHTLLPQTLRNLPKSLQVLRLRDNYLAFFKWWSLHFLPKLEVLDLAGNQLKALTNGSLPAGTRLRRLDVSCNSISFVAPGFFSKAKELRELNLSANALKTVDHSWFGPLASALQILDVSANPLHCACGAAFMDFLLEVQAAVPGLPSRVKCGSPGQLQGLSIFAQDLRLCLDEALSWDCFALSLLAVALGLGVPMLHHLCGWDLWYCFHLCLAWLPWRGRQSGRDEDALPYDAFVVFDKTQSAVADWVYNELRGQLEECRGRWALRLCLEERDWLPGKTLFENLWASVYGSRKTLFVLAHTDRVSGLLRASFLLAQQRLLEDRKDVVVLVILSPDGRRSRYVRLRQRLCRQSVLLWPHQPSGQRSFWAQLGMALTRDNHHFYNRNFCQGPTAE
As to the kind of experiment: Human PBMC cell-based assay. Also on record: endogenous in cells; host or cells: human PBMC from healthy donor whole blood. Particulars: CpG ODN 2216 stimulation, overnight, cytokine readout, read-out: hPBMC/TLR9 IC50. The text has this: Human PBMC Cell-Based Assay
Unlike the HEK reporter cell lines, human peripheral blood mononuclear cell (PBMC) represents primary human immune cells in blood mainly consisting of lymphocytes, monocytes, and dendritic cells. These cells express TLR7, TLR8, or TLR9, and therefore are natural responders to respective ligand stimulation. Upon activation of these TLRs, PBMCs secrete similar cytokines and chemokines in vitro and in vivo, and therefore the in vitro potency of a TLR7/8/9 antagonist in human PBMC is readily translatable to its pharmacodynamics response in vivo.
Human peripheral blood mononuclear cells (PBMC) were isolated from freshly-drawn lithium-heparinized (Lithium Heparin Plus blood Collection tube, BD Vacutainer®) healthy donor whole blood by density gradient (Ficoll-Paque™ PLUS, GE Healthcare life Sciences). Briefly, […] was diluted with 25 mL PBS (without Ca^2+, Mg^2+) in a 50 mL conical tube with porous barrier (Leucosep tube, Greiner bio-one), where 15.5 mL Ficoll-Paque was under laid after spinning. Tubes were centrifuged for 20 minutes at 800×g (1946 rpm) with the brake in the off position, and PBMC were collected from the buffy coat. Cells were then washed twice in PBS, and red blood cells were lysed by suspension in 2 mL (Red Blood Cell Lysis Buffer, Alfa Aesar) for 5-10 minutes at room temperature. After a final wash in PBS, PBMC were resuspended at a final concentration of 2×10^6 cells/mL in RPMI-1640 media with GlutaMAX™ (Gibco) supplemented with 10% Fetal Bovine Serum (Sigma) and plated at 150 μL/well (3×10^5 cells/well) in tissue culture treated round bottom 96-well plates (Corning Incorporated). Antagonist compounds (compounds of this invention) solubilized and serial diluted in 100% DMSO were added in duplicate to cells to yield a final concentration of 1% DMSO (v/v). PBMC were incubated with antagonist compounds for 30 minutes at 37° C., 5% CO2 before adding various TLR agonist reagents in 48 μL complete media per well as follows (final concentrations indicated): CpG ODN 2216 (InvivoGen) at […] for TLR9, ORN 06/LyoVec (InvivoGen) at 1 μg/mL for TLR8 and R848 (InvivoGen) at 1 μg/mL for TLR7 and TLR8. PBMC were incubated overnight at 37° C. with 5% CO2. Cell culture supernatants were collected, and levels of various human cytokines were assessed by Luminex assay (ProcartaPlex™ Multiplex Immunoassay, Invitrogen) or ELISA procedure according to the manufacturer's recommended protocol (eBioscience, ThermoFisher Scientific). Viability of the cells was also checked with Cell Viability Assay (CellTiter Glo® Luminescent Cell Viability Assay, Promega).
`Cc1nn(C2CN(C[C@H]3CN(c4ccc(C#N)c5ncccc45)C[C@@H](C)O3)C2)c2c1CNCC2` [Example 12, 5-[(2R,6S)-2-methyl-6-[[3-(3-methyl-4,5,6,7-tetrahydropyrazolo[4,3-c]pyridin-1-yl)azetidin-1-yl]methyl]morpholin-4-yl]quinoline-8-carbonitrile]: the pIC50 is 7.04.

For the compound `C[C@@H]1CN(c2ccc(C#N)c3ncccc23)C[C@H](CN2CC(n3cc4c(n3)[C@H](C)CNC4)C2)O1` (single isomer, unassigned) [Example 25], the pIC50 is 6.46.

As to `C[C@@H]1CN(c2ccc(C#N)c3ncccc23)C[C@H](CN2CC(n3ncc4c3[C@H](C)NCC4)C2)O1` (single isomer, unassigned) [Example 32], the pIC50 is 6.84.

As to `C[C@@H]1CN(c2ccc(C#N)c3ncccc23)C[C@H](CN2CC(n3cc4c(n3)[C@@H](C)NCC4)C2)O1` (single isomer, unassigned) [Example 33], the pIC50 was 7.14.

As for `C[C@@H]1CN(c2ccc(C#N)c3ncccc23)C[C@H](CN2CC(n3ncc4c3CN[C@@H](C)C4)C2)O1` (single isomer, unassigned) [Example 27], the pIC50 is 7.09.

For the compound `C[C@@H]1CN(c2ccc(C#N)c3ncccc23)C[C@H](CN2CC(n3ncc4c3[C@@H](C)NCC4)C2)O1` (single isomer, unassigned) [Example 31], the pIC50 is 6.63.

As for `Cc1c2c(nn1C1CN(C[C@H]3CN(c4ccc(C#N)c5ncccc45)C[C@@H](C)O3)C1)CCNC2` [Example 13, 5-[(2R,6S)-2-methyl-6-[[3-(3-methyl-4,5,6,7-tetrahydropyrazolo[4,3-c]pyridin-2-yl)azetidin-1-yl]methyl]morpholin-4-yl]quinoline-8-carbonitrile], the pIC50 was 6.92.

Take `CCN1CCc2cn(C3CN(C[C@H]4CN(c5ccc(C#N)c6ncccc56)C[C@@H](C)O4)C3)nc2C1` [Example 7, 5-[(2S,6R)-2-[[3-(6-ethyl-5,7-dihydro-4H-pyrazolo[3,4-c]pyridin-2-yl)azetidin-1-yl]methyl]-6-methyl-morpholin-4-yl]quinoline-8-carbonitrile]: the pIC50 is 6.71.

In the case of `Cc1c2c(nn1C1CN(C[C@H]3CN(c4ccc(C#N)c5ncccc45)C[C@@H](C)O3)C1)CCN(C)C2` [Example 15, 5-[(2S,6R)-2-[[3-(3,5-dimethyl-6,7-dihydro-4H-pyrazolo[4,3-c]pyridin-2-yl)azetidin-1-yl]methyl]-6-methyl-morpholin-4-yl]quinoline-8-carbonitrile], the pIC50 is 6.96.

As to `C[C@@H]1CN(c2ccc(C#N)c3ncccc23)C[C@H](CN2CC(n3ncc4c3CNCC4)C2)O1` [Example 3, 5-[(2R,6S)-2-methyl-6-[[3-(4,5,6,7-tetrahydropyrazolo[3,4-c]pyridin-1-yl)azetidin-1-yl]methyl]morpholin-4-yl]quinoline-8-carbonitrile], the pIC50 was 6.93.

Tested on in the next data set: not listed separately
Description: Human microsome stability assay. Type of data set: in vitro ADME. To be noted: 1 μM test compound, 0.5 mg/mL liver microsomal protein, 37° C., up to 30 minutes; 6.2 = detection limit. How it is done: Human Microsome Stability Assay
The human microsomal stability assay is used for early assessment of metabolic stability of a test compound in human liver microsomes.
Human liver microsomes (Cat. NO.: 452117, Corning, USA; Cat. NO.:H2610, Xenotech, USA) were preincubated with test compound for 10 minutes at 37° C. in 100 mM potassium phosphate buffer, pH 7.4. The reactions were initiated by adding NADPH regenerating system. The final incubation mixtures contained 1 μM test compound, 0.5 mg/mL liver microsomal protein, 1 mM MgCl2, 1 mM NADP, 1 unit/mL isocitric dehydrogenase and 6 mM isocitric acid in 100 mM potassium phosphate buffer, pH 7.4. After incubation times of 0, 3, 6, 9, 15 and 30 minutes at 37° C., 300 μL of cold acetonitrile (including internal standard) was added to 100 μL incubation mixture to terminate the reaction. Following precipitation and centrifugation, the amount of compound remaining in the samples were determined by LC-MS/MS. Controls of no NADPH regenerating system at zero and 30 minutes were also prepared and analyzed.
(Liver microsomes are a subcellular fraction often used to study metabolism.)
`C[C@@H]1CN(c2ccc(C#N)c3ncccc23)C[C@H](CN2CC(n3ncc4c3CCN[C@H]4C)C2)O1` [Example 22, 5-[(2R,6S)-2-methyl-6-[[3-[(4S)-4-methyl-4,5,6,7-tetrahydropyrazolo[4,3-c]pyridin-1-yl]azetidin-1-yl]methyl]morpholin-4-yl]quinoline-8-carbonitrile]: the “Clearance of Human microsome” value stood at 6.2 mL/min/kg.

With `C[C@@H]1CN(c2ccc(C#N)c3ncccc23)C[C@H](CN2CCC(n3ncc4c3CCNC4)CC2)O1` [Example 35, 5-[(2R,6S)-2-methyl-6-[[4-(4,5,6,7-tetrahydropyrazolo[4,3-c]pyridin-1-yl)-1-piperidyl]methyl]morpholin-4-yl]quinoline-8-carbonitrile], the “Clearance of Human microsome” value is recorded as 7.7 mL/min/kg.

On to `C[C@@H]1CN(c2ccc(C#N)c3ncccc23)C[C@H](CN2CC(n3cc4c(n3)C[C@H](C)NC4)C2)O1` [Example 19, 5-[(2R,6S)-2-methyl-6-[[3-[(6S)-6-methyl-4,5,6,7-tetrahydropyrazolo[4,3-c]pyridin-2-yl]azetidin-1-yl]methyl]morpholin-4-yl]quinoline-8-carbonitrile], for which the “Clearance of Human microsome” value stood at 6.2 mL/min/kg.

Take `Cc1c2c(nn1C1CN(C[C@H]3CN(c4ccc(C#N)c5ncccc45)C[C@@H](C)O3)C1)CNCC2` [Example 43, 5-[(2R,6S)-2-methyl-6-[[3-(3-methyl-4,5,6,7-tetrahydropyrazolo[3,4-c]pyridin-2-yl)azetidin-1-yl]methyl]morpholin-4-yl]quinoline-8-carbonitrile]: the “Clearance of Human microsome” value is on record as 6.5 mL/min/kg.

As for `C[C@@H]1CN(c2ccc(C#N)c3ncccc23)C[C@H](CN2CC(n3cc4c(n3)CCNC4)C2)O1` [Example 2, 5-[(2R,6S)-2-methyl-6-[[3-(4,5,6,7-tetrahydropyrazolo[4,3-c]pyridin-2-yl)azetidin-1-yl]methyl]morpholin-4-yl]quinoline-8-carbonitrile], the “Clearance of Human microsome” value was found to be 6.2 mL/min/kg.

Take `Cc1nn(C2CN(C[C@H]3CN(c4ccc(C#N)c5ncccc45)C[C@@H](C)O3)C2)c2c1CCNC2` [Example 42, 5-[(2R,6S)-2-methyl-6-[[3-(3-methyl-4,5,6,7-tetrahydropyrazolo[3,4-c]pyridin-1-yl)azetidin-1-yl]methyl]morpholin-4-yl]quinoline-8-carbonitrile]: the “Clearance of Human microsome” value is reported as 7.1 mL/min/kg.

On to `C[C@@H]1CN(c2ccc(C#N)c3ncccc23)C[C@H](CN2CC(n3ncc4c3C[C@H](C)NC4)C2)O1` [Example 18, 5-[(2R,6S)-2-methyl-6-[[3-[(6S)-6-methyl-4,5,6,7-tetrahydropyrazolo[4,3-c]pyridin-1-yl]azetidin-1-yl]methyl]morpholin-4-yl]quinoline-8-carbonitrile], for which the “Clearance of Human microsome” value was determined as 7.0 mL/min/kg.

Source of the values: patent US20210300924A1, “5-[6-[[3-(4,5,6,7-TETRAHYDROPYRAZOLO[4,3-C]PYRIDIN-1-YL)AZETIDIN-1-YL]METHYL]MORPHOLIN-4-YL]QUINOLINE-8-CARBONITRILE DERIVATIVES AND SIMILAR COMPOUNDS AS TLR7-9 ANTAGONISTS FOR TREATING SYSTEMIC LUPUS ERYTHEMATOSUS” (Hoffmann-La Roche Inc., priority 2018, published 2021).
